According to patent US20200267980A1, “Herbicidally Active Pyridyl-/Pyrimidyl-Pyrimidine Derivatives” (Syngenta Participations AG, priority 2017, published 2020):

Key:
Assay type in all cases: in vivo
[1] = tested on: Alopecurus myosuroides (ALOMY); assay: Pre-emergence herbicidal activity, glasshouse pot test; set-up: key: 5=total damage to plant; 0=no damage to plant; settings: 1000 g/ha, pre-emergence spray, evaluated after 13 days, damage score 0-5
Procedure: (§1) Seeds of a variety of test species were sown in standard soil in pots: Triticum aestivium (TRZAW), Avena fatua (AVEFA), Alopecurus myosuroides (ALOMY), Echinochloa crus-galli (ECHCG), Lolium perenne (LOLPE), and Setaria faberi (SETFA). After cultivation for one day (pre-emergence) under controlled conditions in a glasshouse (at 24/16° C., day/night; 14 hours light; 65% humidity), the plants were sprayed with an aqueous spray solution derived from the formulation of the technical active ingredient in acetone/water (50:50) solution containing 0.5% Tween 20 (polyoxyethelyene sorbitan monolaurate, CAS RN 9005-64-5). The test plants were then grown in a glasshouse under controlled conditions (at 24/16° C., day/night; 14 hours light; 65% humidity) and watered twice daily. After 13 days, the test was evaluated (5=total damage to plant; 0=no damage to plant).

Avena fatua (AVEFA) [2] = assay: as above; set-up: key: 5=total damage to plant; 0=no damage to plant; settings: 1000 g/ha, pre-emergence spray, evaluated after 13 days, damage score 0-5
Procedure: as §1

[3] = tested on: Echinochloa crus-galli (ECHCG); assay: as above; set-up: key: 5=total damage to plant; 0=no damage to plant; settings: 1000 g/ha, pre-emergence spray, evaluated after 13 days, damage score 0-5
Procedure: as §1

Lolium perenne (LOLPE) [4] = assay: as above; set-up: key: 5=total damage to plant; 0=no damage to plant; settings: 1000 g/ha, pre-emergence spray, evaluated after 13 days, damage score 0-5
Procedure: as §1

Setaria faberi (SETFA) [5] = assay: as above; set-up: key: 5=total damage to plant; 0=no damage to plant; settings: 1000 g/ha, pre-emergence spray, evaluated after 13 days, damage score 0-5
Procedure: as §1

[6] = tested on: Triticum aestivium (TRZAW); assay: as above; set-up: key: 5=total damage to plant; 0=no damage to plant; settings: 1000 g/ha, pre-emergence spray, evaluated after 13 days, damage score 0-5
Procedure: as §1

[7] = tested on: Alopecurus myosuroides (ALOMY); assay: Post-emergence herbicidal activity, glasshouse pot test; set-up: key: 5=total damage to plant; 0=no damage to plant; settings: 1000 g/ha, post-emergence spray after 8 days cultivation, evaluated after 13 days, damage score 0-5
Procedure: (§2) Seeds of a variety of test species were sown in standard soil in pots: Triticum aestivium (TRZAW), Avena fatua (AVEFA), Alopecurus myosuroides (ALOMY), Echinochloa crus-galli (ECHCG), Lolium perenne (LOLPE), and Setaria faberi (SETFA). After 8 days cultivation (post-emergence) under controlled conditions in a glasshouse (at 24/16° C., day/night; 14 hours light; 65% humidity), the plants were sprayed with an aqueous spray solution derived from the formulation of the technical active ingredient in acetone/water (50:50) solution containing 0.5% Tween 20 (polyoxyethelyene sorbitan monolaurate, CAS RN 9005-64-5). The test plants were then grown in a glasshouse under controlled conditions (at 24/16° C., day/night; 14 hours light; 65% humidity) and watered twice daily. After 13 days, the test was evaluated (5=total damage to plant; 0=no damage to plant).

[8] = tested on: Echinochloa crus-galli (ECHCG); assay: as above; set-up: key: 5=total damage to plant; 0=no damage to plant; settings: 1000 g/ha, post-emergence spray after 8 days cultivation, evaluated after 13 days, damage score 0-5
Procedure: as §2

Lolium perenne (LOLPE) [9] = assay: as above; set-up: key: 5=total damage to plant; 0=no damage to plant; settings: 1000 g/ha, post-emergence spray after 8 days cultivation, evaluated after 13 days, damage score 0-5
Procedure: as §2

Setaria faberi (SETFA) [10] = assay: as above; set-up: key: 5=total damage to plant; 0=no damage to plant; settings: 1000 g/ha, post-emergence spray after 8 days cultivation, evaluated after 13 days, damage score 0-5
Procedure: as §2

[11] = tested on: Triticum aestivium (TRZAW); assay: as above; set-up: key: 5=total damage to plant; 0=no damage to plant; settings: 1000 g/ha, post-emergence spray after 8 days cultivation, evaluated after 13 days, damage score 0-5
Procedure: as §2

Avena fatua (AVEFA) [12] = assay: as above; settings: 1000 g/ha, post-emergence spray after 8 days cultivation, evaluated after 13 days, damage score 0-5
Procedure: as §2

| Structure (SMILES) | Control of weed species after pre-emergence application, ALOMY [1] | Control of weed species after pre-emergence application, AVEFA (Avena fatua (AVEFA) [2]) | Control of weed species after pre-emergence application, ECHCG [3] | Control of weed species after pre-emergence application, LOLPE (Lolium perenne (LOLPE) [4]) | Control of weed species after pre-emergence application, SETFA (Setaria faberi (SETFA) [5]) | Control of weed species after pre-emergence application, TRAZW [6] | Control of weed species after post-emergence application, ALOMY [7] | Control of weed species after post-emergence application, ECHCG [8] | Control of weed species after post-emergence application, LOLPE (Lolium perenne (LOLPE) [9]) | Control of weed species after post-emergence application, SETFA (Setaria faberi (SETFA) [10]) | Control of weed species after post-emergence application, TRAZW [11] | Control of weed species after post-emergence application, AVEFA (Avena fatua (AVEFA) [12]) |
| --- | --- | --- | --- | --- | --- | --- | --- | --- | --- | --- | --- | --- |
| Cc1ccc(C(=O)Nc2cnc(-c3cncc(F)c3)nc2C(F)(F)F)cc1 [Compound F25] | 0 | 0 | 3 | 0 | 4 | 0 | 0 | 5 | 1 | 4 | 0 | 2 |
| N#CCN(C(=O)C1CC1)c1cnc(-c2cncc(F)c2)nc1C(F)(F)F [Compound F30] | 0 | 2 | 3 | 2 | 4 | 1 | 1 | 4 | 2 | 5 | 1 | 2 |
| O=C(Nc1cnc(-c2cncc(F)c2)nc1C(F)(F)F)C(Cl)Cl [Compound F8] | 0 | 1 | 4 | 1 | 4 | 1 | 1 | 4 | 2 | 5 | 1 | 2 |
| O=C(CCC1CCCC1)Nc1cnc(-c2cncc(F)c2)nc1C(F)(F)F [Compound F19] | 0 | 1 | 4 | 1 | 4 | 1 | 0 | 4 | 1 | 4 | 0 | 2 |
| COCCC(=O)Nc1cnc(-c2cncnc2)nc1C(F)(F)F [Compound F16] | 0 | 1 | 4 | 1 | 5 | 0 | 1 | 5 | 2 | 5 | 1 | 3 |
| O=C(Nc1cnc(-c2cncc(F)c2)nc1C(F)(F)F)C1CCC1 [Compound F26] | 0 | 1 | 3 | 0 | 4 | 1 | 1 | 5 | 2 | 5 | 1 | 4 |
| O=C(CCC1CCCC1)Nc1cnc(-c2cncnc2)nc1C(F)(F)F [Compound F17] | 0 | 1 | 3 | 0 | 4 | 0 | 0 | 4 | 1 | 4 | 1 | 2 |
| CC(C)(C)C(=O)Nc1cnc(-c2cncc(F)c2)nc1C(F)(F)F [Compound F6] | 0 | 2 | 4 | 1 | 3 | 0 | 1 | 5 | 2 | 4 | 1 | 3 |
| O=C(Nc1cnc(-c2cncc(F)c2)nc1C(F)(F)F)c1ccccc1 [Compound F10] | 0 | 1 | 4 | 1 | 4 | 0 | 0 | 5 | 1 | 5 | 1 | 2 |
| O=C(Nc1cnc(-c2cncc(F)c2)nc1C(F)(F)F)C1CCCCC1 [Compound F27] | 0 | 0 | 0 | 0 | 0 | 0 | 0 | 3 | 0 | 2 | 0 | 1 |
